Reference: patent US20230278972A1, “SUBSTITUTED HALOALKYL SULFONANILIDE HERBICIDES” (FMC Corporation, priority 2020, published 2023)

Experiments:
Format in all cases: in vivo
[1] = test system: Pigweed, Palmer (palmer amaranth, palmer pigweed, Amaranthus palmeri); experiment: Test A1 preemergence, Pigweed, Palmer
Method in brief: (§1)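 Herbicidal response was scored on plants treated either preemergence, by directed spray onto soil of a loam–sand blend after sowing, or postemergence on potted plants at the one- to two-leaf stage, 2–10 cm high. Test chemicals were carried in a non-phytotoxic solvent mix with surfactant.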

[2] = test system: ragweed (common ragweed, Ambrosia artemisiifolia); experiment: Test A1 postemergence, ragweed; conditions: Postemergence
Method in brief: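 Postemergence species (ragweed, Palmer pigweed, wild oat) were sprayed at one- to two-leaf stage, 2 to 10 cm tall. Corn was treated preemergence by directed soil spray. Both used a loam soil/sand blend and compounds in a non-phytotoxic solvent mixture with surfactant.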

[3] = test system: kochia (Bassia scoparia); experiment: Test A1 preemergence, kochia
Method in brief: as §1

[4] = test system: Ryegrass, Italian (Italian ryegrass, Lolium multiflorum); experiment: Test A1 postemergence, Ryegrass, Italian; conditions: Postemergence
Method in brief: (§2)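 Test compounds were formulated in a non-phytotoxic solvent mixture containing a surfactant. For preemergence, seeds sown in a loam soil–sand blend received a directed soil spray. For postemergence, potted plants in the same soil, 2 to 10 cm tall at the one- to two-leaf stage, were sprayed.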

[5] = test system: blackgrass (Alopecurus myosuroides); experiment: Test A1 postemergence, blackgrass; conditions: Postemergence, 0 to 100 scale (0 no effect, 100 complete control)
Method in brief: as §2

[6] = test system: Foxtail, Giant (giant foxtail, Setaria faberi); experiment: Test A1 postemergence, Foxtail, Giant; conditions: Postemergence
Method in brief: as §2

[7] = test system: goosegrass (Eleusine indica); experiment: Test A1 postemergence, goosegrass; conditions: Postemergence
Method in brief: as §2

[8] = test system: Ryegrass, Italian (Italian ryegrass, Lolium multiflorum); experiment: Test A1 preemergence, Ryegrass, Italian
Method in brief: as §1

[9] = 31 g ai/ha, 0 to 100 scale (0 no effect, 100 complete control)
[10] = 125 g ai/ha, 0 to 100 scale, 0 no effect, 100 complete control
[11] = 31 g ai/ha, 0 to 100 scale (0 no effect, 100 complete control), 10 days

Row | Compound | Plant response rating, Pigweed, Palmer [1, 9] | Plant response rating, Pigweed, Palmer [1, 10] | Plant response rating, Ragweed [2, 11] | Plant response rating, Ragweed ([2]; 125 g ai/ha, 0 to 100 scale) | Plant response rating, Kochia [3, 9] | Plant response rating, Kochia [3, 10] | Plant response rating, Ryegrass, Italian [4, 11] | Plant response rating, Ryegrass, Italian ([4]; 125 g ai/ha, 0 to 100 scale) | Plant response rating, Blackgrass ([5]; 31 g ai/ha, 10 days) | Plant response rating, Blackgrass ([5]; 125 g ai/ha) | Plant response rating, Foxtail, Giant [6, 11] | Plant response rating, Foxtail, Giant ([6]; 125 g ai/ha, 0 to 100 scale) | Plant response rating, Goosegrass [7, 11] | Plant response rating, Goosegrass ([7]; 125 g ai/ha, 0 to 100 scale) | Plant response rating, Ryegrass, Italian [8, 9] | Plant response rating, Ryegrass, Italian [8, 10]
1 | CCOC1CC(c2cc(N(COC(=O)C(C)(C)C)S(=O)(=O)C(F)(F)F)c(C)cc2C)=NO1 (stereo not shown) [Compound 339] | 30 | 100 | 40 | 70 | 0 | 90 | 0 | 50 | 0 | 30 | 0 | 50 | 0 | 30 | 30 | 50
2 | CCOC(=O)N(c1cc(C(=O)N2CCC(C)CC2)c(C)cc1C)S(=O)(=O)C(F)(F)F [Compound 354] | 10 | 50 | 40 | 50 | 0 | 20 | 0 | 40 | 0 | 0 | 0 | 70 | 0 | 100 | 20 | 70
3 | Cc1c(NS(=O)(=O)C(F)(F)F)cc(C(=O)N(C)C)c(C)c1Cl [Compound 287] | 0 | 90 | 60 | 70 | 20 | 60 | 0 | 60 | 0 | 0 | 0 | 0 | 0 | 60 | 70 | 90
4 | Cc1c(NS(=O)(=O)C(F)(F)F)cc(C(=O)N2CCC(Cl)CC2)c(C)c1C [Compound 356] | 50 | 100 | 70 | 80 | 0 | 30 | 20 | 30 | 0 | 0 | 10 | 40 | 0 | 70 | 0 | 40
